The IC50 is the concentration that inhibits the measured activity by half.

The source of these data is US11352339B2 (MISSION THERAPEUTICS LIMITED, priority 2016, dated 2022).

For the experiment, the target named is USP30 (Homo sapiens (Human), UniProt Q70CQ3). Nature of the experiment: USP30 Biochemical IC50 Assay. Particulars: fluorescence polarisation, TAMRA labelled peptide linked to ubiquitin; 30 min pre-incubation, read after 2 h; read-out: IC50 range. How it is done:
Reactions were performed in duplicate in black 384 well plates (small volume, Greiner 784076) in a final reaction volume of 21 μl. Either 1 μl of 50% DMSO or diluted compound was added to the plate. […] Enzyme and compound were incubated for 30 min at room temp. Reactions were initiated by the addition of 50 nM of TAMRA labelled peptide linked to ubiquitin via an iso-peptide bond as fluorescence polarisation substrate. Reactions were read immediately after addition of substrate and following a 2 h incubation at room temperature. Readings were performed on a Pherastar Plus (BMG Labtech). λ Excitation 540 nm; λ Emission 590 nm.

Molecules are shown by their SMILES.

Chain of USP30 (Q70CQ3 57-517): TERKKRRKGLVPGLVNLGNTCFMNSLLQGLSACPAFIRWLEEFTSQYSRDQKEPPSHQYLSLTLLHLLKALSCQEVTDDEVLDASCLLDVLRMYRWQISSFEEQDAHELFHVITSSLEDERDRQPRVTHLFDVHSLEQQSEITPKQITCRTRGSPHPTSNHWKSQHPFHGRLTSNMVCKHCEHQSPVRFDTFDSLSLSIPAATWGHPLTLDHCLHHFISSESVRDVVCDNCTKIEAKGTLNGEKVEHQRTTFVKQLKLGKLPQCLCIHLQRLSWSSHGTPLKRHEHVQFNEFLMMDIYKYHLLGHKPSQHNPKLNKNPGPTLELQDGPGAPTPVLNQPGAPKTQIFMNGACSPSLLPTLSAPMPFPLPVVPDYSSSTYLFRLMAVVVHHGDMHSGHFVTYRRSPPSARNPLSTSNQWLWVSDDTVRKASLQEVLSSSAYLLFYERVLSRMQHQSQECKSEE

In the case of `N#CN1CCC(c2cc(-c3cccc(-c4ccccc4)c3)no2)C1` (single isomer, unassigned) [Example 119, 3-(3-([1,1′-Biphenyl]-3-yl)isoxazol-5-yl)pyrrolidine-1-carbonitrile], the IC50 is less than 0.1 µM.

With `N#CN1CCC[C@H]1c1nc(-c2cccc(-c3ccccc3)c2)no1` [Example 141, (S)-2-(3-([1,1′-Biphenyl]-3-yl)-1,2,4-oxadiazol-5-yl)pyrrolidine-1-carbonitrile], the concentration for half-maximal inhibition (IC50) was 0.1 to 1 µM.

For the compound `CC(C)Cn1cc(-c2ccc3nc(C4CCN(C#N)C4)[nH]c3c2)cn1` (stereo not drawn) [Example 78, 3-(6-(1-Isobutyl-1H-pyrazol-4-yl)-1H-benzo[d]imidazol-2-yl)pyrrolidine-1-carbonitrile], the concentration for half-maximal inhibition (IC50) was 1 to 10 µM.

In the case of `N#CN1CCC(c2ncc(-c3ccccc3)c(=O)[nH]2)C1` (stereo not drawn) [Example 120, 3-(6-Oxo-5-phenyl-1,6-dihydropyrimidin-2-yl)pyrrolidine-1-carbonitrile], the 50% inhibitory concentration (IC50) was in the range of 1 to 10 µM.

Consider `N#CN1CCC(c2cc(-c3cccc(-c4ccccc4)n3)[nH]n2)C1` (single isomer, unassigned) [Example 41, 3-(5-(6-Phenylpyridin-2-yl)-1H-pyrazol-3-yl)pyrrolidine-1-carbonitrile], for which the half-maximal inhibitory concentration (IC50) fell in the range of 0.1 to 1 µM.

Take `CC[C@@H]1CN(C#N)C[C@H]1c1cc(-c2cccc(-c3ccccc3)c2)n[nH]1` (single isomer, unassigned) [Example 44, Trans-3-(3-([1,1′-biphenyl]-3-yl)-1H-pyrazol-5-yl)-4-ethylpyrrolidine-1-carbonitrile]: the 50% inhibitory concentration (IC50) is 1 to 10 µM.

On to `N#Cc1cnn(-c2nccc(-c3nc([C@@H]4CCCN4C#N)no3)n2)c1` [Example 187, (S)-1-(4-(3-(1-Cyanopyrrolidin-2-yl)-1,2,4-oxadiazol-5-yl)pyrimidin-2-yl)-1H-pyrazole-4-carbonitrile], for which the IC50 was 0.1 to 1 µM.

In the case of `CCc1cccc(-c2cc(C(=O)NC)c3nc([C@@H]4CCCN4C#N)oc3c2)c1` [Example 131, (S)-2-(1-Cyanopyrrolidin-2-yl)-6-(3-ethylphenyl)-N-methylbenzo[d]oxazole-4-carboxamide], the IC50 is 1 to 10 µM.

Regarding `N#CN1CCC(c2cc(-c3cccc(-c4ccccc4)n3)[nH]n2)C1` (stereo not drawn) [Example 37, 3-(5-(6-Phenylpyridin-2-yl)-1H-pyrazol-3-yl)pyrrolidine-1-carbonitrile], the IC50 fell in the range of 0.1 to 1 µM.

With `N#Cc1cccc(-c2cc(-c3nc(C4CCCN4C#N)no3)ccn2)n1` (stereo not drawn) [Example 180, 4′-(3-(1-Cyanopyrrolidin-2-yl)-1,2,4-oxadiazol-5-yl)-[2,2′-bipyridine]-6-carbonitrile], the IC50 is 0.1 to 1 µM.

Turning to `Cc1ccc(-c2cccc(-c3nc(C4CCCN4C#N)no3)c2)cn1` (stereo not drawn) [Example 154, 2-(5-(3-(6-Methylpyridin-3-yl)phenyl)-1,2,4-oxadiazol-3-yl)pyrrolidine-1-carbonitrile], the 50% inhibitory concentration (IC50) lay within 0.1 to 1 µM.

Regarding `N#CN1CCC(c2noc(-c3cc(-c4ccccc4)nc4ccccc34)n2)C1` (stereo not drawn) [Example 53, 3-(5-(2-Phenylquinolin-4-yl)-1,2,4-oxadiazol-3-yl)pyrrolidine-1-carbonitrile], the IC50 was in the range of 0.1 to 1 µM.

For the compound `Cc1ccc2cc(-c3nc(C4CCN(C#N)C4)no3)ccc2n1` (stereo not drawn) [Example 56, 3-(5-(2-Methylquinolin-6-yl)-1,2,4-oxadiazol-3-yl)pyrrolidine-1-carbonitrile], the half-maximal inhibitory concentration (IC50) lay within 1 to 10 µM.

As for `N#CN1CCC(c2nc3ccc(-c4ccccc4OCc4ccccc4)cc3[nH]2)C1` (stereo not drawn) [Example 73, 3-(6-(2-(Benzyloxy)phenyl)-1H-benzo[d]imidazol-2-yl)pyrrolidine-1-carbonitrile], the concentration for half-maximal inhibition (IC50) is 0.1 to 1 µM.

On to `N#CN1CCC(c2cc(-c3cccc(-c4ccncc4)c3)n[nH]2)C1` (stereo not drawn) [Example 28, 3-(3-(3-(Pyridin-4-yl)phenyl)-1H-pyrazol-5-yl)pyrrolidine-1-carbonitrile], for which the half-inhibitory concentration (IC50) was 0.1 to 1 µM.

Turning to `N#CN1CCC(c2n[nH]c(-c3cc(-c4ccccc4)ccn3)n2)C1` (stereo not drawn) [Example 109, 3-(5-(4-Phenylpyridin-2-yl)-4H-1,2,4-triazol-3-yl)pyrrolidine-1-carbonitrile], the IC50 lay within 0.1 to 1 µM.

For the compound `N#Cc1cccc(-c2ccc3oc([C@@H]4CCCN4C#N)nc3c2)c1F` [Example 137, (S)-2-(5-(3-Cyano-2-fluorophenyl)-benzo[d]oxazol-2-yl)pyrrolidine-1-carbonitrile], the IC50 is 1 to 10 µM.

For `N#CN1C[C@@H](c2cc(-c3cccc(-c4ccccc4)c3)n[nH]2)[C@H](C2CC2)C1` (relative stereo) [Example 46, Trans-3-(3-([1,1′-biphenyl]-3-yl)-1H-pyrazol-5-yl)-4-cyclopropylpyrrolidine-1-carbonitrile], the IC50 lay within 0.1 to 1 µM.

Regarding `N#CN1CCC(c2noc(C3CCN(c4ccccc4)C3)n2)C1` (stereo not drawn) [Example 69, 3-(5-(1-Phenylpyrrolidin-3-yl)-1,2,4-oxadiazol-3-yl)pyrrolidine-1-carbonitrile], the 50% inhibitory concentration (IC50) lay in the range of 0.1 to 1 µM.

Regarding `CNC(=O)c1cc(-c2ccccc2)cc2oc([C@@H]3CCCN3C#N)nc12` [Example 122, (S)-2-(1-Cyanopyrrolidin-2-yl)-N-methyl-6-phenylbenzo[d]oxazole-4-carboxamide], the 50% inhibitory concentration (IC50) fell in the range of 10 to 100 µM.

On to `N#CN1CCCC1c1noc(-c2ccnc(-c3ccc(OC(F)(F)F)cc3)c2)n1` (stereo not drawn) [Example 169, 2-(5-(2-(4-(Trifluoromethoxy)phenyl)-pyridin-4-yl)-1,2,4-oxadiazol-3-yl)pyrrolidine-1-carbonitrile], for which the IC50 was 1 to 10 µM.

For `N#CN1CCC(c2noc(-c3ccc(-c4ccccc4)[nH]c3=O)n2)C1` (stereo not drawn) [Example 52, 3-(5-(2-Oxo-6-phenyl-1,2-dihydropyridin-3-yl)-1,2,4-oxadiazol-3-yl)pyrrolidine-1-carbonitrile], the concentration for half-maximal inhibition (IC50) was 1 to 10 µM.

Regarding `C[C@H]1CN(C#N)C[C@@H]1c1[nH]nc(-c2cccc(-c3ccccc3)c2)c1F` [Example 23], the IC50 was in the range of 0.1 to 1 µM.

As for `N#CN1CCC(c2nc3cc(-c4ccccc4)ccc3[nH]2)C1` (stereo not drawn) [Example 95, 3-(5-Phenyl-1H-benzo[d]imidazol-2-yl)pyrrolidine-1-carbonitrile], the half-inhibitory concentration (IC50) is 0.1 to 1 µM.

For the compound `N#Cc1ccc(-c2cc(C3CCN(C#N)C3)[nH]n2)cc1` (stereo not drawn) [Example 2, 3-(3-(4-Cyanophenyl)-1H-pyrazol-5-yl)pyrrolidine-1-carbonitrile], the half-maximal inhibitory concentration (IC50) is 1 to 10 µM.

Regarding `C[C@H]1CN(C#N)C[C@@H]1c1[nH]nc(-c2cccc(-c3ccccc3)c2)c1F` [Example 22], the 50% inhibitory concentration (IC50) is less than 0.1 µM.

Turning to `Cn1cnc(-c2cccc(-c3cc(C4CCN(C#N)C4)n[nH]3)c2)c1` (stereo not drawn) [Example 34, 3-(5-(3-(1-Methyl-1H-imidazol-4-yl)phenyl)-1H-pyrazol-3-yl)pyrrolidine-1-carbonitrile], the IC50 was in the range of 1 to 10 µM.

`N#CN1CCC[C@H]1c1nc2cc(-c3cccc([N+](=O)[O-])c3)ccc2o1` [Example 136, (S)-2-(5-(3-Nitrophenyl)benzo[d]oxazol-2-yl)pyrrolidine-1-carbonitrile]: the IC50 was in the range of 0.1 to 1 µM.

With `C[C@H]1CN(C#N)C[C@@H]1c1nc2cc(-c3ccccc3)cnc2[nH]1` (single isomer, unassigned) [Example 103, Trans-3-methyl-4-(6-phenyl-3H-imidazo[4,5-b]pyridin-2-yl)pyrrolidine-1-carbonitrile], the half-inhibitory concentration (IC50) is 0.1 to 1 µM.

Take `N#CN1CCC(c2noc(-c3ccc(N4CCOCC4)cc3)n2)C1` (stereo not drawn) [Example 61, 3-(5-(4-Morpholinophenyl)-1,2,4-oxadiazol-3-yl)pyrrolidine-1-carbonitrile]: the IC50 fell in the range of 1 to 10 µM.
